Measurements taken from patent publication US20240424113A1, “CONJUGATES COMPRISING ANTIFUNGALS AND HEAT SHOCK PROTEIN 90 (HSP90) INHIBITORS AND METHODS OF USE THEREOF” (Bright Angel Therapeutics Inc., priority 2021, published 2024).
Values after ≈ are worked out from the molar mass of the structure shown.

Legend:
[1] = molecular target: Hsp90 Nuclear Binding Domain (NBD) (Candida albicans (strain SC5314 / ATCC MYA-2876) (Yeast), UniProt P46598); experiment: Surface Plasmon Resonance (SPR) binding, C. albicans Hsp90 NBD; details: biotinylated Hsp90 NBD on streptavidin chip, 25° C., 1:1 binding model
Procedure, shortened: (§1)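 Biacore S200 at 25° C; AviTag-biotinylated recombinant Hsp90 NBD captured on streptavidin chip at 2000-2500 RU. Compound dilution series run in HBS-P pH 7.4 with 2% DMSO at 40 μL/min, 60 s association and 600 s dissociation. Sensorgrams fitted to a 1:1 binding model.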

[2] = molecular target: Hsp90 Nuclear Binding Domain (NBD) (Aspergillus fumigatus, UniProt P40292); experiment: Surface Plasmon Resonance (SPR) binding, A. fumigatus Hsp90 NBD; details: biotinylated Hsp90 NBD on streptavidin chip, 25° C., 1:1 binding model; NB undefined
Procedure, shortened: as §1

[3] = system: CaCl2; experiment: Antifungal sensitivity testing (broth microdilution MIC); type: cell-based; details: 96-well broth microdilution
Procedure, shortened: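 Broth microdilution MIC per a modified published protocol; compounds dissolved in DMSO, fluconazole in water; duplicates in at least two independent experiments. Fungicidal activity checked by spotting MIC-plate cultures onto YPD agar, read after 24 h at 30° C.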

[4] = system: HepG2 cells; experiment: Mammalian cell toxicity (Cell Titer-Glo); type: cell-based
Protocol: Mammalian Cell Toxicity. HepG2 cells were seeded overnight at 500 cells/well in 384-well plate, then incubated with compounds (10-point concentration titration) for 48 h. Cell Titer-Glo® reagent ([…]) was added to each well and after 10-minute incubation at room temperature the luminescent signal was measured using an Envision plate reader (Perkin Elmer).

Chain of Hsp90 Nuclear Binding Domain (NBD) (Aspergillus fumigatus, UniProt P40292) (P40292 whole entry, looked up, the tested form may be a part): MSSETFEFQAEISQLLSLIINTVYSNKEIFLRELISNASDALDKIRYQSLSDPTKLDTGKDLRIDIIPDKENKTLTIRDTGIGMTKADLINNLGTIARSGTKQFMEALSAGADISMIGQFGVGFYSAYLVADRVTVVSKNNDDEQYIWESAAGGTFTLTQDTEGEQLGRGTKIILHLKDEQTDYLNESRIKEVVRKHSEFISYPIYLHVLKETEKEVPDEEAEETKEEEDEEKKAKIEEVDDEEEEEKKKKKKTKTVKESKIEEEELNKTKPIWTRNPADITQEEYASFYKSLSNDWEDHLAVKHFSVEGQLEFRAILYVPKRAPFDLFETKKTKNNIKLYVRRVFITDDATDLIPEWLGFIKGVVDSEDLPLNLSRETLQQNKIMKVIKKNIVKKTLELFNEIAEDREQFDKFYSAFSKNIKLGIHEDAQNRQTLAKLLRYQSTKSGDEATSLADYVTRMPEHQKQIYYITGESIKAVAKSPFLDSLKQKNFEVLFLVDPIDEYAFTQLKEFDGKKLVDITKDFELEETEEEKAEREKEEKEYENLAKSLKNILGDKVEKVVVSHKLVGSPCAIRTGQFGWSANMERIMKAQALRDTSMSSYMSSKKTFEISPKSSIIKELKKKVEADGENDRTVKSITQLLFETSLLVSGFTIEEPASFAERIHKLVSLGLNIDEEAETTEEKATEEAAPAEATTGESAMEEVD
Chain of Hsp90 Nuclear Binding Domain (NBD) (Candida albicans (strain SC5314 / ATCC MYA-2876) (Yeast), UniProt P46598) (P46598 1-218 limits assumed): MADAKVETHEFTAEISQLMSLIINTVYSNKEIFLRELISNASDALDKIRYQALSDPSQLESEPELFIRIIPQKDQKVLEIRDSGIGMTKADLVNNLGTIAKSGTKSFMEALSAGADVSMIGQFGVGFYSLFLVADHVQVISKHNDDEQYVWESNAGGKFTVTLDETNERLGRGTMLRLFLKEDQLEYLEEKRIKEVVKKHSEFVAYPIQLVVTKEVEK

Compound	Kd [1]	Kd [2]	MIC50 ([3]; Table 4)	MIC50 ([3]; Table 6)	HepG2 MIC50 ([4]; Table 6, 48 h incubation)	HepG2 MIC50 ([4]; Table 5, 48 h incubation)
COC(=O)c1c(C(=O)NC2CCN(CC(O)(Cn3cncn3)c3ccc(F)cc3F)CC2)sc2nc(N)c(=O)n(-c3ccc4c(c3)N(c3ccccc3)CCO4)c12 (stereo not drawn) [Compound I-55, methyl 3-amino-6-((1-(2-(2,4-difluorophenyl)-2-hydroxy-3-(1H-1,2,4-triazol-1-yl)propyl)piperidin-4-yl)carbamoyl)-2-oxo-1-(4-phenyl-3,4-dihydro-2H-benzo[b][1,4]oxazin-6-yl)-1,2-dihydrothieno[2,3-b]pyrazine-7-carboxylate]	318 nM	314 nM	9 µM (≈ 7.18 µg/mL)	9 µM (≈ 7.18 µg/mL)	>10 µM	–
CC(O)c1c(C(=O)NC2CCN(CC(O)(Cn3cncn3)c3ccc(F)cc3F)CC2)sc2nc(N)c(=O)n(-c3ccc4ccn(-c5ccccc5)c4c3)c12 (stereo not drawn) [Compound I-56, 3-amino-N-(1-(2-(2,4-difluorophenyl)-2-hydroxy-3-(1H-1,2,4-triazol-1-yl)propyl)piperidin-4-yl)-7-(1-hydroxyethyl)-2-oxo-1-(1-phenyl-1H-indol-6-yl)-1,2-dihydrothieno[2,3-b]pyrazine-6-carboxamide]	64.6 nM	229 nM	3 µM (≈ 2.3 µg/mL)	3 µM (≈ 2.3 µg/mL)	>10 µM	–
Nc1nc2sc(CNC3CCN(CCCCCC(O)(Cn4cncn4)c4ccc(F)cc4F)CC3)cc2n(-c2ccc3c(c2)N(c2ccccc2)CCO3)c1=O (stereo not drawn) [Compound I-118, 3-amino-6-(((1-(6-(2,4-difluorophenyl)-6-hydroxy-7-(1H-1,2,4-triazol-1-yl)heptyl)piperidin-4-yl)amino)methyl)-1-(4-phenyl-3,4-dihydro-2H-benzo[b][1,4]oxazin-6-yl)thieno[2,3-b]pyrazin-2(1H)-one]	191 nM	406 nM	2 µM (≈ 1.56 µg/mL)	2 µM (≈ 1.56 µg/mL)	3 µM	3 µM
Nc1nc2sc(CNC3CCN(C[C@@](O)(Cn4cncn4)c4ccc(F)cc4F)CC3)cc2n(-c2ccc3c(c2)N(c2ccccc2)CCO3)c1=O [Compound I-62, (R)-3-amino-6-(((1-(2-(2,4-difluorophenyl)-2-hydroxy-3-(1H-1,2,4-triazol-1-yl)propyl)piperidin-4-yl)amino)methyl)-1-(4-phenyl-3,4-dihydro-2H-benzo[b][1,4]oxazin-6-yl)thieno[2,3-b]pyrazin-2(1H)-one]	234 nM	423 nM	3 µM (≈ 2.18 µg/mL)	3 µM (≈ 2.18 µg/mL)	10.6 µM	–
Nc1nc2sc(CNC3CCN(CC(O)(Cn4ccnc4)c4ccc(F)cc4F)CC3)cc2n(-c2ccc3c(c2)N(c2ccccc2)CCO3)c1=O (stereo not drawn) [Compound I-139, 3-amino-6-(((1-(2-(2,4-difluorophenyl)-2-hydroxy-3-(1H-imidazol-1-yl)propyl)piperidin-4-yl)amino)methyl)-1-(4-phenyl-3,4-dihydro-2H-benzo[b][1,4]oxazin-6-yl)thieno[2,3-b]pyrazin-2(1H)-one]	151 nM	246 nM	1.2 µM (≈ 0.87 µg/mL)	1.2 µM (≈ 0.87 µg/mL)	3.9 µM	3.9 µM
Nc1nc2sc(C(=O)NC3CCN(CC(O)(Cn4cncn4)c4ccc(F)cc4F)CC3)cc2n(-c2ccc3c(c2)N(c2ccccc2)CCO3)c1=O (stereo not drawn) [Compound I-4, 3-amino-N-(1-(2-(2,4-difluorophenyl)-2-hydroxy-3-(1H-1,2,4-triazol-1-yl)propyl)piperidin-4-yl)-2-oxo-1-(4-phenyl-3,4-dihydro-2H-benzo[b][1,4]oxazin-6-yl)-1,2-dihydrothieno[2,3-b]pyrazine-6-carboxamide]	28 nM	113 nM	0.75 µM (≈ 0.555 µg/mL)	0.75 µM (≈ 0.555 µg/mL)	>10 µM	>10 µM
Nc1nc2sc(CNC3CCN(CC[C@@](O)(Cn4cncn4)c4ccc(F)cc4F)CC3)cc2n(-c2ccc3c(c2)N(c2ccccc2)CCO3)c1=O [Compound I-133, (S)-3-amino-6-(((1-(3-(2,4-difluorophenyl)-3-hydroxy-4-(1H-1,2,4-triazol-1-yl)butyl)piperidin-4-yl)amino)methyl)-1-(4-phenyl-3,4-dihydro-2H-benzo[b][1,4]oxazin-6-yl)thieno[2,3-b]pyrazin-2(1H)-one]	300 nM	620 nM	2.13 µM (≈ 1.58 µg/mL)	2.13 µM (≈ 1.58 µg/mL)	16.8 µM	–
Nc1nc2sc(C(=O)N[C@@H]3CCN(CC[C@@](O)(Cn4cncn4)c4ccc(F)cc4F)C3)cc2n(-c2ccc3c(c2)N(c2ccccc2)CCO3)c1=O [Compound I-70, 3-amino-N-((R)-1-((S)-3-(2,4-difluorophenyl)-3-hydroxy-4-(1H-1,2,4-triazol-1-yl)butyl)pyrrolidin-3-yl)-2-oxo-1-(4-phenyl-3,4-dihydro-2H-benzo[b][1,4]oxazin-6-yl)-1,2-dihydrothieno[2,3-b]pyrazine-6-carboxamide]	0.3 nM	2.9 nM	5.75 µM (≈ 4.25 µg/mL)	5.75 µM (≈ 4.25 µg/mL)	1.5 µM	–
Nc1nc2sc(C(=O)NC3CCN(CCCC(O)(Cn4cncn4)c4ccc(F)cc4F)CC3)cc2n(-c2ccc3c(c2)N(c2ccccc2)CCO3)c1=O (stereo not drawn) [Compound I-64, 3-amino-N-(1-(4-(2,4-difluorophenyl)-4-hydroxy-5-(1H-1,2,4-triazol-1-yl)pentyl)piperidin-4-yl)-2-oxo-1-(4-phenyl-3,4-dihydro-2H-benzo[b][1,4]oxazin-6-yl)-1,2-dihydrothieno[2,3-b]pyrazine-6-carboxamide]	0.9 nM	19.3 nM	3.12 µM (≈ 2.4 µg/mL)	3.13 µM (≈ 2.4 µg/mL)	2 µM	–
Nc1nc2sc(C(=O)NC3CCN(C[C@](O)(Cn4cncn4)c4ccc(F)cc4F)CC3)cc2n(-c2ccc3c(c2)N(c2ccccc2)CCC3)c1=O [Compound I-21, (S)-3-amino-N-(1-(2-(2,4-difluorophenyl)-2-hydroxy-3-(1H-1,2,4-triazol-1-yl)propyl)piperidin-4-yl)-2-oxo-1-(1-phenyl-1,2,3,4-tetrahydroquinolin-7-yl)-1,2-dihydrothieno[2,3-b]pyrazine-6-carboxamide]	6.7 nM	37.3 nM	0.085 µM (≈ 0.0627 µg/mL)	0.09 µM (≈ 0.0664 µg/mL)	>50 µM	>50 µM
Nc1nc2sc(C(=O)NC[C@H]3CO[C@](Cn4cncn4)(c4ccc(F)cc4F)C3)cc2n(-c2ccc3c(c2)N(c2ccccc2)CCO3)c1=O [Compound I-27, N-(((3S,5S)-5-((1H-1,2,4-triazol-1-yl)methyl)-5-(2,4-difluorophenyl)tetrahydrofuran-3-yl)methyl)-3-amino-2-oxo-1-(4-phenyl-3,4-dihydro-2H-benzo[b][1,4]oxazin-6-yl)-1,2-dihydrothieno[2,3-b]pyrazine-6-carboxamide]	9.2 nM	13.4 nM	2.5 µM (≈ 1.74 µg/mL)	2.5 µM (≈ 1.74 µg/mL)	>10 µM	–
CC1CC(NCc2cc3c(nc(N)c(=O)n3-c3ccc4c(c3)N(c3ccccc3)CCO4)s2)CCN1CC(O)(Cn1cncn1)c1ccc(F)cc1F (stereo not drawn) [Compound I-138, 3-amino-6-(((1-(2-(2,4-difluorophenyl)-2-hydroxy-3-(1H-1,2,4-triazol-1-yl)propyl)-2-methylpiperidin-4-yl)amino)methyl)-1-(4-phenyl-3,4-dihydro-2H-benzo[b][1,4]oxazin-6-yl)thieno[2,3-b]pyrazin-2(1H)-one]	445 nM	674 nM	2.3 µM (≈ 1.7 µg/mL)	2.3 µM (≈ 1.7 µg/mL)	7.9 µM	–
Nc1nc2sc(CNC3CCN(CC(=O)OCCC(O)(Cn4cncn4)c4ccc(F)cc4F)CC3)cc2n(-c2ccc3c(c2)N(c2ccccc2)CCO3)c1=O (stereo not drawn) [Compound I-136, 3-(2,4-difluorophenyl)-3-hydroxy-4-(1H-1,2,4-triazol-1-yl)butyl 2-(4-(((3-amino-2-oxo-1-(4-phenyl-3,4-dihydro-2H-benzo[b][1,4]oxazin-6-yl)-1,2-dihydrothieno[2,3-b]pyrazin-6-yl)methyl)amino)piperidin-1-yl)acetate]	271 nM	529 nM	6.25 µM (≈ 4.99 µg/mL)	6.25 µM (≈ 4.99 µg/mL)	19.4 µM	–
Nc1nc2sc(-c3noc(C(=O)NN4CCN(CC(O)(Cn5cncn5)c5ccc(F)cc5F)CC4)n3)cc2n(-c2ccc3c(c2)N(c2ccccc2)CCO3)c1=O (stereo not drawn) [Compound I-54, 3-(3-amino-2-oxo-1-(4-phenyl-3,4-dihydro-2H-benzo[b][1,4]oxazin-6-yl)-1,2-dihydrothieno[2,3-b]pyrazin-6-yl)-N-(4-(2-(2,4-difluorophenyl)-2-hydroxy-3-(1H-1,2,4-triazol-1-yl)propyl)piperazin-1-yl)-1,2,4-oxadiazole-5-carboxamide]	73.5 nM	339 nM	0.6 µM (≈ 0.485 µg/mL)	0.6 µM (≈ 0.485 µg/mL)	>10 µM	>10 µM
Nc1nc2sc(C(=O)NC3CCN(C[C@](O)(Cn4cncn4)c4ccc(F)cc4F)CC3)cc2n(-c2ccc3ccn(-c4ccccc4)c3c2)c1=O [Compound I-23, (S)-3-amino-N-(1-(2-(2,4-difluorophenyl)-2-hydroxy-3-(1H-1,2,4-triazol-1-yl)propyl)piperidin-4-yl)-2-oxo-1-(1-phenyl-1H-indol-6-yl)-1,2-dihydrothieno[2,3-b]pyrazine-6-carboxamide]	28.6 nM	46 nM	0.35 µM (≈ 0.253 µg/mL)	0.35 µM (≈ 0.253 µg/mL)	>50 µM	>50 µM
